Test results from PMC6117054, “The Congo red derivative FSB binds to curli amyloid fibers and specifically stains curliated E. coli” (PLoS ONE, 2018).
pKd: −log10 of the molar value.

Biological target: T1, curli (native curli fibers; monomeric unit CsgA) (Escherichia coli, UniProt P28307)
T1 construct: native curli amyloid fibers isolated from E. coli MC4100; mature secreted CsgA (signal peptide removed); 13 kDa monomeric unit; fiber polymer
Assay: depletion (centrifugation) assay, absorbance of free dye at […] nm, saturation fit
Type: binding

T1 sequence (P28307 21-151): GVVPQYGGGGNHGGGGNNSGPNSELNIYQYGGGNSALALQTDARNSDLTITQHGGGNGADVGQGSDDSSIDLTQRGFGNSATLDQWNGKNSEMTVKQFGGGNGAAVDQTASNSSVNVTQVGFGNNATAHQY

SMILES: O=C(O)c1cc(/C=C/c2ccc(/C=C/c3ccc(O)c(C(=O)O)c3)c(F)c2)ccc1O [FSB, (E,E)-1-fluoro-2,5-bis(3-hydroxycarbonyl-4-hydroxy) styrylbenzene]
- pKd: 5.10
